This note sets out measurements from PMC3003168, “Preparation and In vitro / In vivo characterization of spray dried microsphere formulation encapsulating 4-chlorocurcumin” (Indian Journal of Pharmaceutical Sciences, 2010).

A word on the AUC: it is the area under the concentration-time curve, a measure of exposure. Read a high AUC as more exposure. In general, Cmax refers to the maximum level reached in the sampled fluid or tissue. What is called Tmax is the time from dosing to the highest level. One may read the Vd as a proportionality between amount in the body and measured concentration, not a real space. A higher Vd goes with wide distribution into tissue. Broadly, the clearance is the rate of elimination divided by the concentration. Lower therefore signals inefficient removal. As usually defined, the half-life is the time needed for the level to fall by half in the phase considered. Low values mean fast loss, high ones slow loss.

Data set [1] can be described thus: Pharmacokinetics of 4-chlorocurcumin in rats. Particulars: male, Wistar, blood, iv; rat, i.v. solution, 2.8 mg. It is filed as in vivo. As for the experimental part: From the data of the release studies, a suitable microsphere formulation to be used further in the rat studies was selected. For in vivo characterization, in vivo drug release (pharmacokinetic study) and reduction in hepatoprotective activity in a CCl4-treated rat model were determined. Pharmacokinetics of the formulation was studied in male Wistar rats. After procurement of the rats, these were acclimatized for 10 days prior to the conduction of the experiment. Rats were injected one time with microsphere suspension containing 2.8 mg of active drug intraperitoneally. A 20 mg microsphere suspension was dispersed in 1 ml normal saline and was injected. Parallel to the microsphere administration, another dose of the drug in the form of solution was administered via i.v. route in another set of rats. In this case drug was administered at an equivalent dose of 2.8 mg. Blood was periodically collected from retroorbital sinus and assayed for the drug using a HPLC standard developed using a previously reported method. The mobile phase consisted of methanol:water at a ratio of 70:30. The retention times and the peak areas were noted. Extraction efficiency for the selected system was determined. The following possible pharmacokinetic parameters for both iv solution administration as well as ip microsphere administration were determined using WinNonlin: Ka, ke, Vd, elimination t1/2, absorption t1/2, Tmax, Cmax. Further, using Wagner-Nelson method cumulative amount of drug released into the plasma was determined.

Another data set concerns CCl4-treated rat model. Nature of the data set: Hepatoprotective activity in CCl4-treated rat model. Type of data set: in vivo, male Wistar rats. Particulars: CCl4-treated rats. As for the experimental part: Hepatoprotective activity was determined for both the microsphere formulation and i.v. solution administration of 4-chlorocurcumin following a protocol reported previously. Another set of rats were used in this study. Male rats weighing around 150-200 g was used in this study. For this experiment, animals were divided into 6 different groups. Group I were normal control. Group II was given carbontetrachloride regularly and it served as toxic control. Group II received CCl4 at a dose of 0.7 ml/kg by intraperitonial route on the 3rd, 6th and 9th day consisting of mixture of CCl4 and olive oil (25:75). Group III received the drug in the solution form by i.v. route. Group III received 4-chlorocurcumin dissolved in PEG 600 solution at a rationale of 1 mg/ml by intravenous route twice daily. Group IV received 4-chlorocurcumin microsphere formulation one time in the beginning of the experiment. Microspheres 2 was administered for this purpose. A 20 mg of formulation was dispersed in 1 ml normal saline and was administered intraperitoneally. Group V were injected with placebo microspheres and Group VI served as a control for PEG injected and was injected 1 ml of PEG solution twice a day. Serum samples were procured from the blood samples collected from common carotid artery on the final day of experimentation prior to sacrifice of the animal. The blood samples collected were subjected to centrifugation for 15 min at 3000 rpm and the serum separated was transferred into fresh empty microcentrifuge tube and was stored in deep freeze for pharmacodynamic evaluation. Hepatoprotective activity was quantified by the activity of SGOT, SGPT levels present in the serum samples and the method used for quantification was modified IFFC method. Subsequently, livers of the all rats in each group were further sent for histopathological studies and for this purpose at the end of the study the rats were sacrificed, the livers were separated carefully and were transferred to sterile containers having formalin solution. Liver sections were subsequently prepared using a previously published method.

The mark [2] stands for this setting: serum, final day, solution i.v. twice daily, microspheres 20 mg i.p. one time.

The structures appear in SMILES notation.

For the molecule `O=C(/C=C/c1ccc(Cl)cc1)CC(=O)/C=C/c1ccc(Cl)cc1` [4-chlorocurcumin], in data set [1], the AUC was found to be 227 µg·h/mL, the highest concentration (Cmax) turned out to be 196 µg/mL, the Tmax stood at 0.5 h and the Vd was 0.0235 L. In data set [1], the clearance was 0.137 mL/min and the half-life was 1.99 h. Further, the “Hepatoprotective activity (reversal of SGOT and SGPT versus toxic control CCl4)” value in the data set with CCl4-treated rat model is given as “although statistically significant, was not reduced to reach the normal levels”. Further, the Histology of liver entry with CCl4-treated rat model (end of study) is recorded as “Normal liver”. In the data set with CCl4-treated rat model (setting [2]), the SGOT is on record as 42.10±1.5 u/1 and the SGPT was found to be 25.7±1.8 u/1. Further, the “Body weights on day 9” value with CCl4-treated rat model (solution i.v. twice daily, microspheres 20 mg i.p. one time) came to 190 ± 18 g.
